The test system of series [1] is blood serum HDL cholesterol. The experiment in a line: Determination of serum HDL cholesterol in cholesterol/cholic acid-fed rats. It counts as in vivo. Particulars: Rattus norvegicus, feed or water, 192 h; male Sprague-Dawley rats, diet supplemented with 0.25% cholic acid and 1.0% cholesterol; 100 mg/kg mixed in diet; eight days; serum HDL-C by FPLC; read-out: HDL Cholesterol Level Increase (%). On the procedure: The ability of the compounds of this invention to increase blood serum HDL levels was established by the following standard experimental procedure for determination of HDL cholesterol:
Male Sprague-Dawley rats weighing 200–225 g were housed two per cage and fed Purina Rodent Chow Special Mix 5001-S supplemented with 0.25% cholic acid and 1.0% cholesterol and water ad libitum for 8 days. Each test substance was administered to a group of six rats fed the same diet with the test diet mixed in as 0.005–0.1% of the total diet. Body weight and food consumption were recorded prior to diet administration and at termination. Typical doses of the test substances are 5–100 mg/kg/day.
At termination, blood was collected from anesthetized rats and the serum was separated by centrifugation. Total serum cholesterol was assayed using the Sigma Diagnostics enzymatic kit for the determination of cholesterol, Procedure No. 352, modified for use with ninety-six well microtiter plates. After reconstitution with water the reagent contained 300 U/I cholesterol oxidase, 100 U/I cholesterol esterase, 1000 U/I horseradish peroxidase, 0.3 mmoles/l 4-aminoantipyrine and 30.0 mmoles/l p-hydroxybenzenesulfonate in a pH 6.5 buffer. In the reaction, cholesterol was oxidized to produce hydrogen peroxide which is used to form a quinoneimine dye. The concentration of dye formed was measured spectrophotometrically by absorbance at 490 nm after incubation at 25° C. for 30 minutes. The concentration of cholesterol was determined for each serum sample relative to a commercial standard from Sigma.
HDL cholesterol concentrations in serum were determined by separation of lipoprotein classes by fast protein liquid chromatography (FPLC) by a modification of the method of Kieft et al., J. Lipid Res., 32 (1991) 859–866. 25 ul of serum was injected onto Superose 12 and Superose 6 (Pharmacia), in series, with a column buffer of 0.05 M Tris (2-amino-2-hydroxymethyl-1,3-propanediol) and 0.15 M sodium chloride at a flow rate of 0.5 ml/min. The eluted sample was mixed on line with Boehringer-Mannheim cholesterol reagent pumped at 0.2 ml/min. The combined eluents were mixed and incubated on line through a knitted coil (Applied Biosciences) maintained at a temperature of 45 C. The eluent was monitored by measuring absorbance at 490 nm and gave a continuous absorbance signal proportional to the cholesterol concentration. The relative concentration of each lipoprotein class was calculated as the percent of total absorbance. HDL cholesterol concentration, in serum, was calculated as the percent of total cholesterol as determined by FPLC multiplied by the total serum cholesterol concentration.
Test compounds were administered at a dose of 100 mg/kg. Each test substance is administered to a group of six rats. The duration of treatment was eight days.

The melting point is the temperature, or range, at which the solid turns liquid.

In turn, `CCOC(=O)CON1C(=O)C(=O)N(c2cc(Cl)ccc2C)C1=S` [Example 1, Ethyl 2-{[3-(5-chloro-2-methylphenyl)-4,5-dioxo-2-thioxo-1-imidazolidinyl]oxy}acetate] showed a melting point of 157 to 159 °C. In addition, the change in vivo at 100 mg/kg in series [1] is 242%.

With `CCOC(=O)CON1C(=O)C(=O)N(c2ccccc2SC)C1=S` [Example 2, Ethyl 2-({3-[2-(methylsulfanyl)phenyl]-4,5-dioxo-2-thioxo-1-imidazolidinyl}oxy)acetate], the melting point was in the range of 112 to 114 °C. In addition, the change in vivo at 100 mg/kg in series [1] was 196%.

`CCN1C(=O)C(=O)N(c2cc(Cl)ccc2C)C1=S` [Example 3, 1-(5-Chloro-2-methylphenyl)-3-ethyl-2-thioxo-4,5-imidazolidinedione] showed a melting point of 173 to 174 °C. Further, the change in vivo at 100 mg/kg in series [1] came to 19%.

In turn, `CCN1C(=O)C(=O)N(c2cc(F)ccc2C)C1=S` [Example 4, 1-Ethyl-3-(5-fluoro-2-methylphenyl)-2-thioxo-4,5-imidazolidinedione] displayed a melting point of 152 to 153 °C. In addition, the change in vivo at 100 mg/kg in series [1] turned out to be 203%.

For the compound `Cc1ccc(Cl)cc1N1C(=O)C(=O)N(C)C1=S` [Example 5, 1-(5-Chloro-2-methylphenyl)-3-methyl-2-thioxo-4,5-imidazolidinedione], the melting point is 171 to 173 °C. For the same compound, the change in vivo at 100 mg/kg in series [1] came out at 186%.

Take `Cc1cccc(C)c1N1C(=O)C(=O)N(C)C1=S` [Example 6, 1-(2,6-Dimethylphenyl)-3-methyl-2-thioxo-4,5-imidazolidinedione]: the melting point lay in the range of 144 to 146 °C. The change in vivo at 100 mg/kg in series [1] was found to be 227%.

`CCN1C(=O)C(=O)N(c2ccc(F)cc2)C1=S` [Example 7, 1-Ethyl-3-(4-fluorophenyl)-2-thioxo-4,5-imidazolidinedione]: the melting point lay within 172 to 174 °C. Further, the change in vivo at 100 mg/kg in series [1] came to 199%.

Compound `CCN1C(=O)C(=O)N(c2ccc(Cl)cc2C)C1=S` [Example 8, 1-(4-Chloro-2-methylphenyl)-3-ethyl-2-thioxo-4,5-imidazolidinedione] displayed a melting point of 161 to 162 °C. Further, the change in vivo at 100 mg/kg in series [1] stood at 103%.

The compound `C#CCN1C(=O)C(=O)N(c2cc(Cl)ccc2C)C1=S` [Example 9, 1-(5-Chloro-2-methylphenyl)-3-(2-propynyl)-2-thioxo-4,5-imidazolidinedione] showed a melting point of 162 to 164 °C. Besides, the change in vivo at 100 mg/kg in series [1] turned out to be 114%.

`CCN1C(=O)C(=O)N(c2c(C)cccc2C)C1=S` [Example 10, 1-(2,6-Dimethylphenyl)-3-ethyl-2-thioxo-4,5-imidazolidinedione] returned a melting point of 103 to 105 °C. In addition, the change in vivo at 100 mg/kg in series [1] came to 36%.

For the origin of these results see patent publication US7135492B2, “1,3-disubstituted-2- thioxo-imidazolidine-4,5-dione derivatives useful in the treatment of atherosclerosis” (Wyeth, priority 2001, dated 2006).
